The source of these data is patent publication US8383129B2, “Employment of rotavirus proteins, derived proteins and peptides for the modulation of tissue permeability” (priority 2003, dated 2013).

The test system of assay [1] is MDCK monolayers. The assay is described as follows: Transepithelial electrical resistance (TER) across confluent MDCK monolayers. The settings on record: for TER of MDCK monolayers treated with synthetic cyclic peptides: 100 or 500 μg/ml, versus control cultures; for TER of epithelial (MDCK) monolayers: confluent monolayers (FIG. 1: after 30 min. of treatment); for TER after withdrawal of the protein from the culture media: monolayers washed and transferred to media without GST-VP8; for dose dependence of the effect upon TER: 0.4, 4 or 10 μg/ml.
Protocol: MDCK cells were cultured as previously described (Gonzalez-Mariscal et al., 1990) and used for experiments between passages 70-90.
The degree of sealing of tight junctions was evaluated by measuring the transepithelial electrical resistance (TER) across the monolayer. Standard procedures were followed (Gonzalez-Mariscal et al., 1990). Briefly, monolayers grown over Millipore filters were mounted between two Lucite chambers with an exposed area of 0.23 cm2. Current was delivered via Ag—AgCl electrodes placed at 2.0 cm form the monolayer; the voltage deflection elicited was measured with a second set of electrodes placed at 1.0 mm from the membrane. The contribution if the filter and the bathing solution was subtracted, and all values reported correspond exclusively to the monolayer. Each disk was used for a single determination.
The determination of the TER across an epithelial monolayer was done as described in Example 1.

Assay [2] relates to male Wistar rats. In words: Induction of diabetes: blood glucose after streptozotocin. The settings on record: 75 mg/kg intraperitoneal, three days after injection, versus mock injection. Type of assay: in vivo, rat. The method, then:
(§1) A) Generation of Diabetic Rats. • Male Wistar rats (230-250 gr.) were maintained on PicoLab® Rodent Diet 20, sterilized by irradiation and water ad libitum, in the animal house (temperature 22 to 24° C., 50 to 55% humidity). Care and handling of the animals were in accordance to international recommended procedures. • Diabetes mellitus type I was induced with one intraperitoneal shot of streptozotocin (75 mg/Kg weight; Sigma, Cat. No. S0130), diluted in citrate buffer 0.1 M (Sigma, Cat. No. S4641) pH 4.5. Streptozotocin solution was prepared immediately before use and protected from light exposure.
(§2) B) Determination of Glucose Concentration in Blood. • Using heparinized capillary tubing (Chase Scientific Glass Inc. Cat. No. 2501) a drop of blood was taken from the eye orbital sinus of the rats. Blood glucose concentration was determined using reactive strips (One Touch, LIFESCAN, Johnson & Johnson) and a commercial glucometer (One Touch Basic Plus, LIFESCAN, Johnson & Johnson). Glucose concentration was determined in healthy animals and in those that had received the streptozotocin intraperitoneal shot at least three days before being tested.

For assay [3], the system named is ZO-1. In words: Immunolocalization of TJ protein ZO-1 in MDCK monolayers. The settings on record: 4 μg/ml, 1 hr. It counts as cell-based. As to the method:
(§3) MDCK cells were cultured in glass coverslips. Confluent cultures were exposed to 4 μg/ml of GST-VP8 for 1 hr. The cells were then fixed for 30 min with 2% p-formaldehyde in PBS, pH 7.4, and permeabilized for 3 min with 0.2% PBS-TX. Cells were washed five times with PBS and then blocked for 30 minutes with 1% BSA Ig free (Research Organics 1331-a). The monolayers were incubated overnight at 4° C. with rabbit polyclonal antibodies against ZO-1 (Zymed 61-7300, dilution 1:100), Claudin 3 (Zymed 34-1700, dilution 3 μgr/ml) or occludin (Zymed 71-1500, dilution 1:100 in 1% Ig-free BSA). After being washed five times with PBS, the coverslips were incubated for one hour at room temperature with a secondary antibody (FITC-conjugated goat anti-rabbit, catalogue no. 65-6111, diluted 1:100, Zymed). The monolayers were washed five times in PBS before being mounted with the antifade reagent Vectashield (Vector Laboratories Inc.). The fluorescence of the monolayers was examined using a confocal microscope (MRC600, Bio-Rad) with a Krypton-argon laser.

The target in assay [4] is T1, claudin-3 (Canis lupus familiaris, UniProt Q95KM5).
T1 construct: endogenous in cells; host or cells: MDCK
T1 sequence (Q95KM5 1-218): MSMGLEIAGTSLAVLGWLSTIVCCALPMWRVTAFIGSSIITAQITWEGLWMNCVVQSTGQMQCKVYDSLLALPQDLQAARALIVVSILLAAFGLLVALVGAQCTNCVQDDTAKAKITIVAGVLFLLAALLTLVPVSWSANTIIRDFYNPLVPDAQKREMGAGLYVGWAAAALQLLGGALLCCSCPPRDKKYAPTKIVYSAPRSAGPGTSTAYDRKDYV
In words: Immunolocalization of TJ protein claudin-3 in MDCK monolayers. It counts as cell-based. The settings on record: 4 μg/ml, 1 hr. As to the method:
as §3

Assay [5] deals with T2, occludin (Canis lupus familiaris, UniProt Q28269).
T2 construct: endogenous in cells; host or cells: MDCK
T2 sequence (Q28269 1-521): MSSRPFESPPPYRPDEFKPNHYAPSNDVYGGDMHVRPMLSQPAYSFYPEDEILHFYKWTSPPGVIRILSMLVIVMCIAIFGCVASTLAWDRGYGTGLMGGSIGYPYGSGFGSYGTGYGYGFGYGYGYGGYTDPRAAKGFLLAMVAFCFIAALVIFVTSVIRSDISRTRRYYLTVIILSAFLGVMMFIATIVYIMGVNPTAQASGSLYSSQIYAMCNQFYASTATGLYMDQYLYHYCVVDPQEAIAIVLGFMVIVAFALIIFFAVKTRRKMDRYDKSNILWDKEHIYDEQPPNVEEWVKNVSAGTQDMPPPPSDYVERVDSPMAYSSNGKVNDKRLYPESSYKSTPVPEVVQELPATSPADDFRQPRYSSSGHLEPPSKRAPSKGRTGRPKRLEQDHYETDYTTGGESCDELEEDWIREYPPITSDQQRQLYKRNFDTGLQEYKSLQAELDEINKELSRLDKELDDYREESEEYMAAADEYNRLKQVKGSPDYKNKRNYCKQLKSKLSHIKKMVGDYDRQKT
The assay is described as follows: Immunolocalization of TJ protein occludin in MDCK monolayers. Type of assay: cell-based. The settings on record: 4 μg/ml, 1 hr. As to the method:
as §3

Assay [6] relates to MDCK monolayers. In words: Calcium-switch assay for TJ assembly (development of TER). Type of assay: cell-based. The settings on record: 4 μg/ml. As to the method:
The ability of VP8 to inhibit the development of TJ was assessed utilizing the Ca^2+ switch assay (Gonzalez-Mariscal et al., 1990). Cells were plated at confluency on Millipore filters and incubated for 1 hour in DMEM (normal calcium media, NC; 1.8 mM Ca^2+). Then, the resulting monolayers were washed three times with PBS without Ca^2+ and transferred to minimal essential medium without Ca^2+ (low calcium media, LC; 1-5 μM Ca^2+). Twenty hours later experimental monolayers were transferred to LC media containing 4 μg/ml of GST-VP8 or of GST-VP5 dissolved in LC media, while control monolayers were again incubated in LC media. After 30 minutes, the experimental monolayers were transferred to NC media containing 4 μg/ml of GST-VP8 or of GST-VP5. Control monolayers received instead NC media. The TER was measured at different time points after the monolayers were transferred to NC media.

For assay [7], the system named is pancreatic cancer and gastrointestinal tumors. The settings on record: cited from earlier work.
In assay [8] the test system is TJ of MDCK monolayers. In words: Freeze-fracture analysis of TJ strands in MDCK monolayers. It counts as cell-based. The settings on record: 4 μg/ml, 1 hour. The method, then:
Confluent monolayers of MDCK cells were incubated for 1 hour with 4 μg/ml of GST-VP8 dissolved in DMEM, while control monolayers remained in DMEM. Freeze-fracture replicas were obtained from monolayers fixed with 2.5% glutaraldehyde for 30 minutes, and gradually infiltrated with glycerol up to a 20% concentration, in which they were left for 1 hour. The monolayers were then detached from the substrate and frozen in liquid nitrogen. Freeze fracture was carried out at −120° C., and 2×10^−6 mm Hg using a Balzers apparatus (BAF400T). After evaporation of platinum and carbon, the organic material was digested for 1 hour in chromic mixture. Replicas were extensively washed in distilled water and mounted in Formvar coated grids. The observations were done in an electron microscope JEOL 200EX.
To assess modifications in the pattern of TJ strands, we counted the number of strands intercepting lines drawn perpendicular to the main axis of the junction, every 48 nm, as well as the distance between the upper and lowermost strand. 59 and 54 μm of TJ networks were analysed respectively for control and VP8 treated monolayers.
As has been previously reported (Gonzalez-Mariscal et al., 1985) the amount of junction is defined by the following function:
Where ni is the number of strands in a segment of TJ, and % is the percentage in which that number of strands is present in the sample.
Total junctional width is defined as: […]
Where ni is the distance between the upper and lowermost filament in TJ segment, and %i is the percentage in which that width is present in the sample.

The subject of assay [9] is rats with streptozotocin induced diabetes. The assay is described as follows: Blood glucose after insulin administration to diabetic rats. Type of assay: in vivo, rat. The method, then:
as §1, §2
C) Administration of Insulin to Diabetic Rats. • In order to study the changes in glucose concentration generated by the administration of insulin, the first blood sample was taken from diabetic animals that had fasted overnight. Immediately after, the animals received their food (Lab Diet 5053), and 30 minutes later they were treated according to the following protocols: 1) Human insulin of intermediate action (3-6 IU/rat; Humulin® N, HI-310, Lilly) was parenterally administered. 2) Human insulin of intermediate action (15-30 IU/rat; Humulin® N, HI-310, Lilly) was given orally through an esophagic rat cannula (Fine Science Tools; Cat. No. 18061-75), in a solution of 400 μl of NaHCO3 (1.5 g/100 ml, pH 8.3-8.4), to neutralize gastric acidity. 3) Employing an esophagic rat cannula, 100 μg of GST-VP8 and human insulin of intermediate action (15-30 IU/rat; Humulin® N, HI-310, Lilly) were administered orally in a solution of 400 μl NaHCO3 (1.5 g/100 ml, pH 8.3-8.4). 4) 100 μg of GST-VP8 were administered orally through an esophagic rat cannula. The level of blood glucose was determined at different times after the start of each of the above described procedures.

Entries after “also recorded” stand apart in the source; their conditions may differ.

Regarding “144VVKT147 (Rhesus Monkey Rotavirus) [SEQ. ID. No. 4]”, the “TER of MDCK monolayers treated with synthetic cyclic peptides” value in [1] was “no effect; also recorded: TER similar to that of control cultures”.
On the same count and under the same terms, the value for “174IYTY177 (Rhesus Monkey Rotavirus) [SEQ. ID. No. 6]” was “no effect; also recorded: TER similar to that of control cultures”; that for “183NVTT186 (Rhesus Monkey Rotavirus) [SEQ. ID. No. 7]” was “significantly reduces the TER; also recorded: significantly lower TER”.
As for `CN(N=O)C(=O)N[C@H]1C(O)O[C@H](CO)[C@@H](O)[C@@H]1O` (mixture of isomers) [streptozotocin], the “concentration of blood glucose” value in assay [2] is on record as “significantly increased the level of glucose in the blood”; in assay [2] (listed as Streptozotocin) it was “significantly increases the concentration of blood glucose”.
As to “GST-VP8: RRV VP8 fragment (VP4 gene nucleotides 1 to 750) cloned in pGEX-4T-1, fusion protein”, the “distribution of ZO-1 (immunofluorescence)” value in assay [3] is listed as “strong immuno reactivity in the cytoplasm; also recorded: strong immunoreactivity in the cytoplasm”. In assay [4], the “distribution of claudin-3 (immunofluorescence)” value was “large areas almost devoid of lateral staining; also recorded: cell border staining becomes barely detectable in large areas of the monolayer”. In assay [5], the “distribution of occludin (immunofluorescence)” value was “broad and diffuse stain at the cell periphery; also recorded: diffuse and wide label at the cellular boundaries”. Further, in [6], the “development of TER / epithelial paracellular barrier after transfer from low to normal calcium media” value is “delays the development of the epithelial paracellular barrier”. Besides, the “TER of epithelial (MDCK) monolayers” value is “significant decrease in TER” in [1] (4 μg/ml) and “significantly reduces the TER” in assay [1] (4 μg/ml, listed as VP8-GST). For the same molecule, the “TER after withdrawal of the protein from the culture media” value in [1] (4 μg/ml) is given as “recover their TER”; in assay [1] (4 μg/ml, listed as GST-VPB) it was “the TER of the monolayers is restored”. Also, the “dose dependence of the effect upon TER” value in assay [1] is “dose-dependent decrease in TER”.
On to TGFβ, for which the tumor growth entry in assay [7] is on record as “significant reduction of tumor growth”.
With “VP8: polypeptide derived from rotavirus protein VP4; used in the experiments as GST or His fusion protein”, in assay [8], the “TJ freeze fracture pattern” value was “induces the appearance of loose ends oriented perpendicular to the network of TJ fibrils”. Moreover, in [8] (versus control monolayers), the “distribution of the number of TJ strands” value is “no change” and the “total amount of junction” value is “no change”. In assay [8] (control monolayers 0.17), the “Number of loose ends/linear amount of junction in μm” value worked out at 0.32. For the same molecule, in assay [6], the “development of TER / epithelial paracellular barrier after transfer from low to normal calcium media” value is reported as “a clear inhibition in the development of TER”. Besides, the “blood glucose concentration, insulin administered orally together with VP8” value in assay [9] (VP8 100 μg and insulin 30 IU, oral) is “the blood glucose concentration diminishes; also recorded: diminishes significantly”. The “blood glucose concentration, VP8 administered orally alone” value in assay [9] (VP8 100 μg, oral, no insulin) was “Only with the latter treatment the blood glucose concentration diminished”. The “TER of epithelial (MDCK) monolayers” value in assay [1] (4 μg/ml) is “diminishes the TER”. Also, the “reversibility with time of the effect upon TER” value in assay [1] (4 μg/ml, protein kept in media) is “reversible with time; also recorded: in a reversible manner”. Besides, in [1], the “dose dependence of the effect upon TER” value is “dose dependent”.
Turning to “insulin: Human insulin of intermediate action (Humulin® N, HI-310, Lilly) [reference compound]”, the “blood glucose concentration, insulin administered orally alone” value in assay [9] (30 IU, oral) is “the concentration of glucose remains high; also recorded: does not diminish the blood glucose concentration”. The “blood glucose concentration, insulin administered parenterally” value in [9] (Humulin, intermediate action, 6 IU, parenteral) is on record as “decreases the blood glucose concentration”.
